Source: the supplement of paper PMC11208160

Assay: recombinant barcode read abundance after kanamycin selection (control-corrected) (log10(CPM+1)); higher = more efficient recombination; sequences stand for … in AGTGCAGAGAAAATCGGCCAGTTTTCTCTGCCTGCAGTCCGCATGCCGT…AGATTTATGCAGCGGACTGCCTTTCTCCCAAAGTGATAAACCGGACAGTATCATGGACCGGTTTTCCCGGTAATCCGTATTTGCAAGGTTGGTTTCACT; site = the 11-nt target
In short: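 Each value is log10(CPM+1). It describes recombination efficiency, taken as averaged, control-corrected counts per million of barcodes at recombinant junctions. The pooled E. coli library paired targets with IS621 bridge RNA target-binding loops, was co-electroporated with a donor plasmid, and was plated twice on chloramphenicol/ampicillin LB agar (control) and twice on chloramphenicol/ampicillin/kanamycin containing 0.1 mM IPTG.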
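Also: IS621 recombinase and bridge RNA in Escherichia coli cells.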

Sequence	recombinant barcode read abundance (log10)
GGGGCACCTTGGGTTCTAACCTGTTGCCT (site GGGGCACCTAC)	0.0542
GGGGCACCTTGGGTTCTAACCTGTTGCCT (site GGGGCACCTAG)	1.15
GGGGCACCTTGGGTTCTAACCTGTTGCCT (site GGGGCACCTAT)	0.556
GGGGCACCTTGGGTTCTAACCTGTTGCTT (site GGGGCACCTAA)	2.29
GGGGCACCTTGGGTTCTAACCTGTTGCTT (site GGGGCACCTAC)	0.68
GGGGCACCTTGGGTTCTAACCTGTTGCTT (site GGGGCACCTAG)	1.48
GGGGCACCTTGGGTTCTAACCTGTTGCTT (site GGGGCACCTAT)	2.06
GGGGCGTCTTGGGTTCTAACCTGTTGCTT (site GGGGCATCTAA)	1.54
GGGGCGTCTTGGGTTCTAACCTGTTGCTT (site GGGGCCTCTAA)	0.0129
GGGGCGTCTTGGGTTCTAACCTGTTGCTT (site GGGGCGTCTAA)	2.16
GGGGCGTCTTGGGTTCTAACCTGTTGCTT (site GGGGCTTCTAA)	0.0767
GGGGCTACTTGGGTTCTAACCTGTTGCCT (site GGGGCTACTAG)	0.396
GGGGCTACTTGGGTTCTAACCTGTTGCCT (site GGGGCTACTGT)	0.183
GGGGTCCCTTGGGTTCTAACCTGTTGCTT (site CTCAAAGCTTC)	0.0621
GGGGTCCCTTGGGTTCTAACCTGTTGCTT (site GGGGTCCCTAA)	2.79
GGGTCCACTTGGGTTCTAACCTGTTGCAT (site GGGTCCACTAA)	0.481
GGGTCCACTTGGGTTCTAACCTGTTGCAT (site GGGTCCACTAC)	0.13
GGGTCCACTTGGGTTCTAACCTGTTGCAT (site GGGTCCACTAG)	0.699
GGGTCCACTTGGGTTCTAACCTGTTGCAT (site GGGTCCACTAT)	2.17
GGGTCCACTTGGGTTCTAACCTGTTGCGT (site GGGTCCACTAA)	0.239
GGGTCCACTTGGGTTCTAACCTGTTGCGT (site GGGTCCACTAC)	2.82
GGGTCCACTTGGGTTCTAACCTGTTGCGT (site GGGTCCACTAG)	1.5

Sequence	recombinant barcode read abundance (log10)
GGGTCCACTTGGGTTCTAACCTGTTGCGT (site GGGTCCACTAT)	1.45
GGGTCCTCTTGGGTTCTAACCTGTTGCCC (site GGGTCCTCTAG)	1.36
GGGTCCTCTTGGGTTCTAACCTGTTGCCC (site GGGTCCTCTCG)	0.0863
GGGTCCTCTTGGGTTCTAACCTGTTGCCC (site GGGTCCTCTGG)	1.23
GGGTCCTCTTGGGTTCTAACCTGTTGCCC (site GGGTCCTCTTG)	0.0208
GGGTCCTCTTGGGTTCTAACCTGTTGCCG (site GGGTCCTCTAG)	1.32
GGGTCCTCTTGGGTTCTAACCTGTTGCCG (site GGGTCCTCTCG)	2.01
GGGTCCTCTTGGGTTCTAACCTGTTGCCG (site GGGTCCTCTGG)	0.422
GGGTCCTCTTGGGTTCTAACCTGTTGCCG (site GGGTCCTCTTG)	0.205
GGGTTCACTTGGGTTCTAACCTGTTGCCG (site GAGTTCACTAG)	0.0415
GGGTTCACTTGGGTTCTAACCTGTTGCCG (site GGGTTCACTCG)	1.43
GGGTTGCCTTGGGTTCTAACCTGTTGCCT (site GAGTTGCCTAG)	0.945
GGGTTGCCTTGGGTTCTAACCTGTTGCCT (site GCGTTGCCTAG)	1.1
GGGTTGCCTTGGGTTCTAACCTGTTGCCT (site GGGTTGCCTAG)	1.46
GGGTTGCCTTGGGTTCTAACCTGTTGCCT (site GTGTTGCCTAG)	0.144
GGTAAGACTTGGGTTCTAACCTGTTGCCT (site GGAAAGACTAG)	0.31
GGTAAGACTTGGGTTCTAACCTGTTGCCT (site GGCAAGACTAG)	0.318
GGTAAGACTTGGGTTCTAACCTGTTGCCT (site GGGAAGACTAG)	0.197
GGTAAGACTTGGGTTCTAACCTGTTGCCT (site GGTAAGACTAG)	1.47
GGTATGTCTTGGGTTCTAACCTGTTGCTG (site CGAATGTCTCA)	0.119
GGTATGTCTTGGGTTCTAACCTGTTGCTG (site GGTATGTCTCA)	0.857
GGTATGTCTTGGGTTCTAACCTGTTGCTT (site GCTATGTCTAG)	0.0865

Sequence	recombinant barcode read abundance (log10)
GGTATGTCTTGGGTTCTAACCTGTTGCTT (site GGTATGTCTAA)	0.641
GGTCAACCTTGGGTTCTAACCTGTTGCCT (site GATCAACCTAG)	0.394
GGTCAACCTTGGGTTCTAACCTGTTGCCT (site GCTCAACCTAG)	0.172
GGTCAACCTTGGGTTCTAACCTGTTGCCT (site GGTCAACCTAG)	1.14
GGTCAACCTTGGGTTCTAACCTGTTGCCT (site GTTCAACCTAG)	0.486
GGTCAGTCTTGGGTTCTAACCTGTTGCGG (site GGTCAGTCTCC)	1.84
GGTCAGTCTTGGGTTCTAACCTGTTGCGG (site TAGTTTACTTA)	0.0859
GGTCATGCTTGGGTTCTAACCTGTTGCCT (site GGTCATACTAG)	0.169
GGTCATGCTTGGGTTCTAACCTGTTGCCT (site GGTCATCCTAG)	0.131
GGTCATGCTTGGGTTCTAACCTGTTGCCT (site GGTCATGCTAG)	1.11
GGTCATGCTTGGGTTCTAACCTGTTGCCT (site GGTCATTCTAG)	0.0304
GGTCCACCTTGGGTTCTAACCTGTTGCCT (site AGTCCACCTAG)	0.386
GGTCCACCTTGGGTTCTAACCTGTTGCCT (site CGTCCACCTAG)	0.181
GGTCCACCTTGGGTTCTAACCTGTTGCCT (site GGTCCACCTAG)	1.07
GGTCCACCTTGGGTTCTAACCTGTTGCCT (site TGTCCACCTAG)	0.108
GGTCCCACTTGGGTTCTAACCTGTTGCCT (site GGGCTCACTAG)	0.0761
GGTCCCACTTGGGTTCTAACCTGTTGCCT (site GGTCCCACTAG)	0.943
GGTCCGTCTTGGGTTCTAACCTGTTGCAT (site AGTCGGTCTAT)	0.127
GGTCCGTCTTGGGTTCTAACCTGTTGCAT (site GGTCCGTCTAT)	1.16
GGTCCTACTTGGGTTCTAACCTGTTGCCT (site GATCCTACTAG)	0.241
GGTCCTACTTGGGTTCTAACCTGTTGCCT (site GCTCCTACTAG)	0.0585
GGTCCTACTTGGGTTCTAACCTGTTGCCT (site GGTCCTACTAG)	0.355
